The source of these data is US20230233650A1, “NOVEL FATTY ACID MODIFIED UROCORTIN 2 DERIVATIVES AND THE USES THEREOF” (Novo Nordisk A/S, priority 2021, published 2023).

Numbered stars: 1 amine (or outer) side, 2 acyl side, 3 side chain; on linkers, the order of the positions; unused ones are H or OH. Side chains are listed from the residue outwards. Peptide text beside a SMILES is read from it. * marks the point of attachment. C20 diacid = O=C(O)CCCCCCCCCCCCCCCCCCC(=O)*; γGlu = O=C(O)[C@H](CCC(=O)[*:2])N[*:1]; AEEA = NCCOCCOCC(=O)O

One assay addresses T1, Human CRF1 receptor (Homo sapiens, UniProt P34998).
T1 construct: host or cells: CHO-K1 (membrane preparation)
T1 sequence (P34998 24-415): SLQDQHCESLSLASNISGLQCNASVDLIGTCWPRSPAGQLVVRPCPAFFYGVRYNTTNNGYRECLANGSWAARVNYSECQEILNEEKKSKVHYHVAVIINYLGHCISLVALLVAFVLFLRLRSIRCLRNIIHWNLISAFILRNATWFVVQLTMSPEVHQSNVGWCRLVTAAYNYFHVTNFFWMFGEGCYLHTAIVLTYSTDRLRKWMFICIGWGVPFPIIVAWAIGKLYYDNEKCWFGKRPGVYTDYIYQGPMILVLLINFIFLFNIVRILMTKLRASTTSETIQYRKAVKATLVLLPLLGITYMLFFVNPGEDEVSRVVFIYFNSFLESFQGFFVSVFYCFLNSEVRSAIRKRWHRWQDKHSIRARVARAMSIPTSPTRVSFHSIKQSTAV
Nature of the assay: CRF1 receptor binding, scintillation proximity assay (SPA). Conditions: displacement of [125I]-Sauvagine, CHO-K1 cell membranes. As for the experimental part: (§1) The purpose of this example was to test the in vitro binding of the compounds of the invention to receptor subtypes CRF1 and CRF2. The in vitro binding of the compounds was determined in a scintillation proximity assay (SPA) as described below. The native, human Ucn1 and Ucn2 peptides are included as references. Scintillation Proximity Assay: […] Both cell lines were cultured at 37° C. in a humidified atmosphere with 5% CO2. […] Membranes were prepared by the following protocol: cultured cells were washed twice with cold Dulbecco’s phosphate buffered saline and detached using TrypLE™ (ThermoFisher) and transferred to tubes and centrifuged for 5 minutes at 1000 g at +4° C. Pellets were resuspended in ice cold homogenization buffer (20 mM Hepes pH 7.1, 5 mM MgCl2, 1 mg/ml Bacitracin with 2 complete EDTA-free protease inhibitor cocktail tablets/50 ml (Roche)) and then homogenized for 30 seconds using a Ultra-Turrax T25 tissue homogenizer (IKA) at medium speed. The homogenate was centrifuged at 35,000 g for 15 minutes at +4° C. using an ultracentrifuge, and the supernatant was discarded, and fresh homogenization buffer was added. Homogenization of the pellet was repeated a total of three times. The final pellet was resuspended in a few millilitres of homogenization buffer and protein concentration was determined using the Bradford method. The membrane preparation was transferred to cryotubes, and the aliquots were stored at -80° C. Each membrane preparation was subsequently titrated to give an appropriate window in the assay. Test procedure: […] Plates were sealed and incubated at 25° C. for 2 hours in a plate shaker set at 400 rpm and thereafter centrifuged at 1500 rpm for 10 minutes. SPA plates were let to stand at room temperature for about 16 hours prior to reading on microplate scintillation counter. Displacement of radioligand was measured as reduction in luminescence, and IC50 values were calculated by nonlinear regression analysis of four parameter sigmoidal dose-response curves.
(In a scintillation proximity assay essentially only radioactivity close to the scintillant gives light.)

The target in the next assay is T2, Human CRF2 receptor (Homo sapiens, UniProt Q13324).
T2 construct: host or cells: CHO-K1 (membrane preparation)
T2 sequence (Q13324 1-411): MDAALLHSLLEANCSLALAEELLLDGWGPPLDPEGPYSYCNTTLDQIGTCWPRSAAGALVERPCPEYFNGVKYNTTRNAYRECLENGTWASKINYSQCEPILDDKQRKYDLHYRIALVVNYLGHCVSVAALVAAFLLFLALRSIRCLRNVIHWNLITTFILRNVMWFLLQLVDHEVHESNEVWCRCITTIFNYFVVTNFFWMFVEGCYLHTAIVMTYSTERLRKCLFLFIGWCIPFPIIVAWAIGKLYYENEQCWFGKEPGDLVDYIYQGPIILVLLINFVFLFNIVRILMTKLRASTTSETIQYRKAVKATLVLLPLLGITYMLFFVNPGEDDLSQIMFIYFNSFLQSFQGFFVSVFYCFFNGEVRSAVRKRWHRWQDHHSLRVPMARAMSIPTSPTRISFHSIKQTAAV
The assay can be described thus: CRF2 receptor binding, scintillation proximity assay (SPA). As to conditions: displacement of [125I]-Sauvagine, CHO-K1 cell membranes. As for the experimental part: as §1

Broadly, the IC50 is the concentration at which inhibition is half-maximal. Read a low IC50 as inhibition by little substance. On to `CC[C@H](C)[C@H](NC(=O)[C@H](CCC(=O)O)NC(=O)[C@H](C)NC(=O)[C@H](CC(N)=O)NC(=O)[C@@H](NC(=O)[C@@H](NC(=O)[C@H](C)NC(=O)[C@H](CCC(N)=O)NC(=O)[C@H](CCC(=O)O)NC(=O)[C@H](CCCNC(=N)N)NC(=O)[C@H](C)NC(=O)[C@H](C)NC(=O)[C@H](CCCNC(=N)N)NC(=O)[C@H](C)NC(=O)[C@H](CCCNC(=N)N)NC(=O)[C@H](C)NC(=O)[C@H](CCC(N)=O)NC(=O)[C@H](CCC(=O)O)NC(=O)[C@H](CC(C)C)NC(=O)[C@H](CC(C)C)NC(=O)[C@@H](NC(=O)[C@H](CCC(N)=O)NC(=O)[C@H](CC(C)C)NC(=O)[C@H](CC(C)C)NC(=O)CNC(=O)[C@@H](NC(=O)[C@@H]1CCCN1C(=O)[C@@H](NC(=O)[C@H](CC(=O)O)NC(=O)[C@H](CC(C)C)NC(=O)[C@H](CO)NC(=O)[C@H](CC(C)C)NC(=O)[C@@H](NC(=O)[C@@H](NC(=O)[C@@H](N)CCCCNC(=O)COCCOCCNC(=O)COCCOCCNC(=O)CC[C@H](NC(=O)CC[C@H](NC(=O)CC[C@H](NC(=O)CCCCCCCCCCCCCCCCCCC(=O)O)C(=O)O)C(=O)O)C(=O)O)[C@@H](C)CC)C(C)C)C(C)C)[C@@H](C)CC)[C@@H](C)CC)[C@@H](C)O)[C@@H](C)O)C(=O)N[C@@H](CC(C)C)C(=O)N[C@@H](C)C(=O)N[C@@H](CCC(=O)O)C(=O)N[C@H](C(N)=O)C(C)C` [Compound 3] (H-K([AEEA-AEEA-γGlu-γGlu-γGlu-C20 diacid])IVLSLDVPIGLLQILLEQARARAAREQATTNAEILAEV-NH2), for which the IC50 at Human CRF1 receptor is over 1000 nM; at Human CRF2 receptor, 1.14 nM.
The like results for `CC[C@H](C)[C@H](NC(=O)[C@H](CCC(=O)O)NC(=O)[C@H](C)NC(=O)[C@H](CC(N)=O)NC(=O)[C@@H](NC(=O)[C@@H](NC(=O)[C@H](C)NC(=O)[C@H](CCC(N)=O)NC(=O)[C@H](CCC(=O)O)NC(=O)[C@H](CCCNC(=N)N)NC(=O)[C@H](C)NC(=O)[C@H](C)NC(=O)[C@H](CCCNC(=N)N)NC(=O)[C@H](C)NC(=O)[C@H](CCCNC(=N)N)NC(=O)[C@H](C)NC(=O)[C@H](CCC(N)=O)NC(=O)[C@H](CCC(=O)O)NC(=O)[C@H](CC(C)C)NC(=O)[C@H](CC(C)C)NC(=O)[C@@H](NC(=O)[C@H](CCC(N)=O)NC(=O)[C@H](CC(C)C)NC(=O)[C@H](CC(C)C)NC(=O)CNC(=O)[C@@H](NC(=O)[C@@H]1CCCN1C(=O)[C@@H](NC(=O)[C@H](CC(=O)O)NC(=O)[C@H](CC(C)C)NC(=O)[C@H](CO)NC(=O)[C@H](CC(C)C)NC(=O)[C@@H](NC(=O)[C@@H](NC(=O)[C@@H](N)CCCCNC(=O)COCCOCCNC(=O)COCCOCCNC(=O)CC[C@H](NC(=O)CC[C@H](NC(=O)CC[C@H](NC(=O)CCCCCCCCCCCCCCCCCCC(=O)O)C(=O)O)C(=O)O)C(=O)O)[C@@H](C)CC)C(C)C)C(C)C)[C@@H](C)CC)[C@@H](C)CC)[C@@H](C)O)[C@@H](C)O)C(=O)N[C@@H](CC(C)C)C(=O)N[C@@H](CCC(=O)O)C(=O)N[C@@H](CCCNC(=N)N)C(=O)N[C@H](C(N)=O)C(C)C` [Compound 4] (H-K([AEEA-AEEA-γGlu-γGlu-γGlu-C20 diacid])IVLSLDVPIGLLQILLEQARARAAREQATTNAEILERV-NH2) were, in that order, over 1000 nM and 1.47 nM.
